Assay results as given in US8629102B2, “3-hydroxyisothiazole 1-oxide derivatives” (Mochida Pharmaceutical Co., Ltd., priority 2011, dated 2014).
pEC50: −log10 of the molar value.

Biological target: T1, GPR40 of human origin (Homo sapiens, UniProt O14842)
T1 construct: expressed in transfected cells
Test: Agonist action on GPR40 of human origin (intracellular Ca2+ change)
Assay type: cell-based
Conditions: CHO cell strain stably expressing GPR40 of human origin; change in Ca2+ concentration, fluorescent calcium indicator
Method in brief: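 CHO cells stably expressing human GPR40, cultured overnight, then loaded 1 h with Calcium 4 dye plus probenecid in HEPES-buffered HBSS. Compound added in 20 mM HEPES-HBSS; intracellular Ca2+ change read by fluorescence, EC50 from dose-response of fluorescence change.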

T1 sequence (O14842 whole entry): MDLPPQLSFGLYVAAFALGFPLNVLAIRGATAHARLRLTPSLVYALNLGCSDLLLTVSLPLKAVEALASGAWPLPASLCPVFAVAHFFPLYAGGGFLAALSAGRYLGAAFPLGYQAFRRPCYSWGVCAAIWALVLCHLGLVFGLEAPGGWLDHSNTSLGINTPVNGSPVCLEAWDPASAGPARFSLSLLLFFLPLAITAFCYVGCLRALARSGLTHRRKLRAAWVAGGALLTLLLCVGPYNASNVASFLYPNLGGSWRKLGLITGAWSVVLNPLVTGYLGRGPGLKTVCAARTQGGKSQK

Structure (SMILES)	pEC50
COc1ccc(-c2cccc3c2CC[C@H]3Oc2ccc(-c3cc(O)n[s+]3[O-])cc2)c(C)c1 (stereo partly drawn) [Example 40, 5-(4-(((R)-4-(4-methoxy-2-methylphenyl)-2,3-dihydro-1H-inden-1-yl)oxy)phenyl)-3-hydroxyisothiazole 1-oxide]	> 6.52
Cc1ccc(-c2cccc3c2CC[C@H]3Oc2ccc(-c3cc(O)n[s+]3[O-])cc2)c(Cl)c1 (stereo partly drawn) [Example 43, 5-(4-(((R)-4-(2-chloro-4-methylphenyl)-2,3-dihydro-1H-inden-1-yl)oxy)phenyl)-3-hydroxyisothiazole 1-oxide]	> 6.52
Cc1cc(OCc2ccccc2)ccc1-c1cccc2c1CC[C@H]2Oc1ccc(-c2cc(O)n[s+]2[O-])cc1 (stereo partly drawn) [Example 47, 5-(4-(((R)-4-(4-benzyloxy-2-methylphenyl)-2,3-dihydro-1H-inden-1-yl)oxy)phenyl)-3-hydroxyisothiazole 1-oxide]	> 6.52
O=C(c1ccc(Oc2cccc3c2CC[C@H]3Oc2ccc(-c3cc(O)n[s+]3[O-])cc2)cc1)N1CCCC1 (stereo partly drawn) [Example 147, (4-(((R)-1-(4-(3-hydroxy-1-oxidoisothiazol-5-yl)phenoxy)-2,3-dihydro-1H-inden-4-yl)oxy)phenyl)(pyrrolidine-1-yl)methanone]	> 6.52
CS(=O)(=O)c1ccc(Oc2cccc3c2CC[C@H]3Oc2ccc(-c3cc(O)n[s+]3[O-])cc2)cc1 (stereo partly drawn) [Example 107, 3-hydroxy-5-(4-(((R)-4-(4-(methylsulfonyl)phenoxy)-2,3-dihydro-1H-inden-1-yl)oxy)phenyl)isothiazole 1-oxide]	> 6.52
COc1cccc(Oc2cccc3c2CC[C@H]3Oc2ccc(-c3cc(O)n[s+]3[O-])cc2)c1 (stereo partly drawn) [Example 91, 3-hydroxy-5-(4-(((R)-4-(3-methoxyphenoxy)-2,3-dihydro-1H-inden-1-yl)oxy)phenyl)isothiazole 1-oxide]	> 6.52
CCOc1ncccc1-c1cccc2c1CC[C@H]2Oc1ccc(-c2cc(O)n[s+]2[O-])cc1 (stereo partly drawn) [Example 19, 5-(4-(((R)-4-(2-ethoxypyridin-3-yl)-2,3-dihydro-1H-inden-1-yl)oxy)phenyl)-3-hydroxyisothiazole 1-oxide]	> 6.52
[O-][s+]1nc(O)cc1-c1ccc(OC2COc3c(Br)cccc32)cc1 (single isomer, unassigned) [Example 150, 5-(4-((7-bromo-2,3-dihydrobenzofuran-3-yl)oxy)phenyl)-3-hydroxyisothiazole 1-oxide]	> 6.52
Cc1ccnc(Oc2cccc3c2CC[C@H]3Oc2ccc(-c3cc(O)n[s+]3[O-])cc2)c1 (stereo partly drawn) [Example 133, 3-hydroxy-5-(4-(((R)-4-((4-methylpyridin-2-yl)oxy)-2,3-dihydro-1H-inden-1-yl)oxy)phenyl)isothiazole 1-oxide]	> 6.52
Cc1cccc(C)c1Oc1cccc2c1CC[C@H]2Oc1ccc(-c2cc(O)n[s+]2[O-])cc1 (stereo partly drawn) [Example 96, 5-(4-(((R)-4-(2,6-dimethylphenoxy)-2,3-dihydro-1H-inden-1-yl)oxy)phenyl)-3-hydroxyisothiazole 1-oxide]	> 6.52
[O-][s+]1nc(O)cc1-c1ccc(O[C@@H]2CCc3c(Oc4cccnc4)cccc32)cc1 (single isomer, unassigned) [Example 85]	> 6.52
Cc1cc(OCCCS(C)(=O)=O)cc(C)c1-c1cccc(CNc2ccc(-c3cc(O)n[s+]3[O-])cc2)c1 (stereo not shown) [Example 2, 5-(4-(((2′,6′-dimethyl-4′-(3-(methylsulfonyl)propoxy)-[1,1′-biphenyl]-3-yl)methyl)amino)phenyl)-3-hydroxyisothiazole 1-oxide]	> 6.52
CN(C)C(=O)c1ccc(Oc2cccc3c2CC[C@H]3Oc2ccc(-c3cc(O)n[s+]3[O-])cc2)cc1 (stereo partly drawn) [Example 137, 4-(((R)-1-(4-(3-hydroxy-1-oxidoisothiazol-5-yl)phenoxy)-2,3-dihydro-1H-inden-4-yl)oxy)-N,N-dimethylbenzamide]	> 6.52
CCOc1ccc(-c2cccc3c2CC[C@H]3Oc2ccc(-c3cc(O)n[s+]3[O-])cc2)cc1 (stereo partly drawn) [Example 7, 5-(4-(((R)-4-(4-ethoxyphenyl)-2,3-dihydro-1H-inden-1-yl)oxy)phenyl)-3-hydroxyisothiazole 1-oxide]	5.52 to 6.52
[O-][s+]1nc(O)cc1-c1ccc(O[C@@H]2CCc3c(-c4cc(F)ccc4C(F)(F)F)cccc32)cc1 (stereo partly drawn) [Example 66, 5-(4-(((R)-4-(5-fluoro-2-trifluoromethylphenyl)-2,3-dihydro-1H-inden-1-yl)oxy)phenyl)-3-hydroxyisothiazole 1-oxide]	> 6.52
CCc1ccc(-c2cccc3c2CC[C@H]3Oc2ccc(-c3cc(O)n[s+]3[O-])cc2)cc1 (stereo partly drawn) [Example 20, 5-(4-(((R)-4-(4-ethylphenyl)-2,3-dihydro-1H-inden-1-yl)oxy)phenyl)-3-hydroxyisothiazole 1-oxide]	5.52 to 6.52
CCc1ccccc1-c1cccc2c1CC[C@H]2Oc1ccc(-c2cc(O)n[s+]2[O-])cc1 (stereo partly drawn) [Example 9, 5-(4-(((R)-4-(2-ethylphenyl)-2,3-dihydro-1H-inden-1-yl)oxy)phenyl)-3-hydroxyisothiazole 1-oxide]	> 6.52
NC(=O)c1ccc(Oc2cccc3c2CC[C@H]3Oc2ccc(-c3cc(O)n[s+]3[O-])cc2)cc1 (stereo partly drawn) [Example 129, 4-(((1R)-1-(4-(3-hydroxy-1-oxidoisothiazol-5-yl)phenoxy)-2,3-dihydro-1H-inden-4-yl)oxy)benzamide]	> 6.52
CN1CC2(CCN(Cc3ccc(COc4ccc(-c5cc(O)n[s+]5[O-])cc4)cc3)CC2)c2ccccc21 (stereo not shown) [Example 124, 3-hydroxy-5-(4-((4-((1-methylspiro[indolin-3,4′-piperidin]-1′-yl)methyl)benzyl)oxy)phenyl)isothiazole 1-oxide]	5.52 to 6.52
NC(=O)c1ccc(-c2cccc3c2CC[C@H]3Oc2ccc(-c3cc(O)n[s+]3[O-])cc2)cn1 (stereo partly drawn) [Example 77, 5-((1R)-1-(4-(3-hydroxy-1-oxidoisothiazole-5-yl)phenoxy)-2,3-dihydro-1H-inden-4-yl)picolinamide]	> 6.52
[O-][s+]1nc(O)cc1-c1cccc(OCCc2cccc(Oc3ccccc3)c2)c1 (stereo not shown) [Example 163, 3-hydroxy-5-(3-(3-phenoxyphenethoxy)phenyl)isothiazole 1-oxide]	5.52 to 6.52
[O-][s+]1nc(O)cc1-c1ccc(O[C@@H]2CCc3c(-c4ccccc4C(F)(F)F)cccc32)cc1 (stereo partly drawn) [Example 64, 5-(4-(((R)-4-(2-trifluoromethylphenyl)-2,3-dihydro-1H-inden-1-yl)oxy)phenyl)-3-hydroxyisothiazole 1-oxide]	> 6.52
COCCN(C)C(=O)c1ccc(Oc2cccc3c2CC[C@H]3Oc2ccc(-c3cc(O)n[s+]3[O-])cc2)cc1 (stereo partly drawn) [Example 146, 4-(((R)-1-(4-(3-hydroxy-1-oxidoisothiazol-5-yl)phenoxy)-2,3-dihydro-1H-inden-4-yl)oxy)-N-(2-methoxyethyl)-N-methylbenzamide]	> 6.52
N#Cc1ccc(-c2cccc3c2CC[C@H]3Oc2ccc(-c3cc(O)n[s+]3[O-])cc2)cc1 (stereo partly drawn) [Example 156, 4-((1R)-1-(4-(3-hydroxy-1-oxidoisothiazol-5-yl)phenoxy)-2,3-dihydro-1H-inden-4-yl)benzonitrile]	> 6.52
Cc1cc(Oc2cccc3c2CC[C@H]3Oc2ccc(-c3cc(O)n[s+]3[O-])cc2)ccn1 (stereo partly drawn) [Example 135, 3-hydroxy-5-(4-(((R)-4-((2-methylpyridin-4-yl)oxy)-2,3-dihydro-1H-inden-1-yl)oxy)phenyl)isothiazole 1-oxide]	> 6.52
[O-][s+]1nc(O)cc1-c1ccc(OCc2ccc(Oc3ccccc3)cc2)cc1 (single isomer, unassigned) [Example 160, 3-hydroxy-5-(4-((4-phenoxybenzyl)oxy)phenyl)isothiazole 1-oxide]	> 6.52
[O-][s+]1nc(O)cc1-c1ccc(O[C@@H]2CCc3c(-c4cccc(Cl)c4)cccc32)cc1 (stereo partly drawn) [Example 8, 5-(4-(((R)-4-(3-chlorophenyl)-2,3-dihydro-1H-inden-1-yl)oxy)phenyl)-3-hydroxyisothiazole 1-oxide]	> 6.52
[O-][s+]1nc(O)cc1-c1ccc(O[C@@H]2CCc3c(-c4ccccc4F)cccc32)cc1 (stereo partly drawn) [Example 11, 5-(4-(((R)-4-(2-fluorophenyl)-2,3-dihydro-1H-inden-1-yl)oxy)phenyl)-3-hydroxyisothiazole 1-oxide]	> 6.52
